The target of this experiment is T1, rat A2B receptors (rA2B) (Rattus norvegicus, UniProt P29276).
T1 construct: expressed in transfected cells; host or cells: HEK-293 cells, stably transfected (G418 selection); membranes
T1 sequence (P29276 1-332): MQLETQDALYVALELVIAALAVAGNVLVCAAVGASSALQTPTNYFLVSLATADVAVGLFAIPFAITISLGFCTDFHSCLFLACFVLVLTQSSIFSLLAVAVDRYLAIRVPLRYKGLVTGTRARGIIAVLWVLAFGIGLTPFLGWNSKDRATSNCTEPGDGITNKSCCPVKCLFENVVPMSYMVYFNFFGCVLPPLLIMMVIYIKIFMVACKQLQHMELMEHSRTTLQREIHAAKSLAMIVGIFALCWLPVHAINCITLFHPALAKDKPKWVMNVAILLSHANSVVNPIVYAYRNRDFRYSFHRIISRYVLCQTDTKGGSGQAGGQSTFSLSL
Description: Radioligand competition binding (125I-ABOPX) at rat A2B receptors in HEK-293 membranes. The following applies: displacement of specific [125I]ABOPX binding at rat A2B receptors expressed in HEK-293 cells; read-out: RatA2B Ki. The protocol: The plasmid was amplified in competent JM109 cells and plasmid DNA isolated using Wizard Megaprep columns (Promega Corporation, Madison, Wis.).
Transfected HEK cells were grown under 5% CO2/[…] humidified atmosphere at a temperature of 37° C. Colonies were selected by growth of cells in 0.6 mg/mL G418. Transfected cells were maintained in DMEM supplemented with Hams F12 nutrient mixture (1/1), 10% newborn calf serum, 2 mM glutamine and containing 50 IU/mL penicillin, […], and 0.2 mg/mL Geneticin (G418, Boehringer Mannheim). Cells were cultured in 10 cm diameter round plates and subcultured when grown confluent (approximately after 72 hours).
At A2B receptors: Confluent monolayers of HEK-A2B cells were washed with PBS followed by ice cold Buffer A (10 mM HEPES, 10 mM EDTA, pH 7.4) with protease inhibitors (10 μg/mL benzamidine, 100 μM phenylmethanesulfonyl fluoride, and 2 μg/mL of each aprotinin, pepstatin and leupeptin). The cells were homogenized in a Polytron (Brinkmann) for 20 s, centrifuged at 30,000×g, and the pellets washed twice with buffer HE (10 mM HEPES, 1 mM EDTA, pH 7.4 with protease inhibitors). The final pellet was resuspended in buffer HE, supplemented with 10% sucrose and frozen in aliquots at −80° C. For binding assays membranes were thawed and diluted 5-10 fold with HE to a final protein concentration of approximately 1 mg/mL. To determine protein concentrations, membranes, and bovine serum albumin standards were dissolved in 0.2% NaOH/0.01% SDS and protein determined using fluorescamine fluorescence. Stowell, C.
After incubation, 20 minutes at room temperature, 50 μL, of 10 mg/mL Na-metabisulfite in water was added to quench the reaction. The reaction mixture was applied to a C18 HPLC column, eluting with a mixture of methanol and 5 mM phosphate, pH 6.0. After 5 min at 35% methanol, the methanol concentration was ramped to 100% over 15 min.
Radioligand binding experiments were performed in triplicate with 20-25 μg membrane protein in a total volume of 0.1 mL HE buffer supplemented with 1 U/mL adenosine deaminase and 5 mM MgCl2. The incubation time was 3 h at 21° C. Nonspecific binding was measured in the presence of 100 μM NECA. […] Membranes were filtered on Whatman GF/C filters using a Brandel cell harvester (Gaithersburg, Md.) and washed 3 times over 15-20 seconds with ice cold buffer (10 mM Tris, 1 mM MgCl2, pH 7.4). Bmax and KD values were calculated by Marquardt's nonlinear least squares interpolation for single a site binding models. Marquardt, D. M., J. Soc. Indust. Appl. […] Ki values for different compounds were derived from IC50 values as described. Linden, J., J. Cycl. Nucl. […] Data from replicate experiments are tabulated as means±SEM.
A general note: Loss of bound radioactivity is the signal in a displacement assay; it reports binding, not function.

In general, Ki refers to the equilibrium dissociation constant of an inhibitor or competing ligand from its target.

On to `CCn1c(=O)c2[nH]c(-c3ccc(N(CCOC)C(=O)Nc4ccncc4)nc3)nc2n(CC)c1=O` [Compound 95], for which the Ki was less than 500 nM.
In the case of `CNc1ccc(-c2nc3c([nH]2)c(=O)n(C)c(=O)n3C)cn1` [Compound 97, 1,3-Dimethyl-8-(6-methylamino-3-pyridyl)xanthine], the Ki was less than 500 nM.
In the case of `C#CCn1c(=O)c2[nH]c(-c3ccc(N(CCOC)C(=O)c4cccnc4)nc3)nc2n(C)c1=O` [Compound 100, 1-Propargyl, 3-methyl-8-[6-[N-nicotinoyl, N-(2-methoxyethyl)amino]-3-pyridyl)xanthine], the Ki was less than 5000 nM.
`CCCn1c(=O)c2[nH]c(-c3ccc(N(C)C(=O)c4cc(C)on4)nc3)nc2n(CCC)c1=O` [Compound 111, 1,3-Dipropyl-8-[6-[N-(5-methylisoxazol-3-yl-3-carbonyl)methylamino]-3-pyridyl)xanthine]: the Ki was less than 100 nM.
Regarding `CCCn1c(=O)c2[nH]c(-c3ccc(N(C)C(=O)c4ccc(C(F)(F)F)nc4)nc3)nc2n(CCC)c1=O` [Compound 121, 1,3-dipropyll-8-[6-(N-[6-(trifluoromethyl)nicotinoyl]methylamino)-3-pyridyl]xanthine], the Ki was less than 100 nM.
Take `CCn1c(=O)c2[nH]c(-c3ccc(N(CC4CC4)C(=O)c4cccnc4)nc3)nc2n(CC)c1=O` [Compound 144, 1,3-Diethyl-8-[6-[N-nicotinoylcyclopropylmethylamino]-3-pyridyl)xanthine]: the inhibition constant Ki was less than 500 nM.

The values are drawn from patent publication US20100273780A1, “SUBSTITUTED 8-HETEROARYL XANTHINES” (PGXHEALTH, LLC, priority 2003, published 2010).
